# Results from patent US20130158024A1, “TRICYCLIC NECROSTATIN COMPOUNDS” (priority 2005, published 2013).
# Legend:
# SH-SY5Y cells [1] = assay: Amyloid-beta 25-35 toxicity in SH-SY5Y cells in the presence of zVAD, ATP assay; format: cell-based, human; conditions: 100 μM amyloid-beta 25-35, zVAD 100 μM, compound 30 μM, 72 hours
# Experimental: (§1) FIG. 35A is a graph showing the results of treating SH-SY5Y cells with 1 mM MPP+ in the presence of zVAD (100 μM) and compound (19) (30 μM) for 72 hours. Cell viability was determined using an ATP assay. FIG. 35B is a graph as in FIG. 35A, in which cells were treated in the presence of 100 μM amyloid-beta 25-35 protein rather than MPP+.
# To further verify that (19) can protect neuronal cells from necrosis, it was tested using two different neurotoxins in the human neuroblastoma cell line SH-SY5Y in the presence of zVAD. Cell death was induced by β-amyloid, a cellular model of Alzheimer's disease, and […] (MPP+), a cellular model of Parkinson's disease.
# SH-SY5Y cells [2] = assay: MPP+ cytotoxicity in SH-SY5Y neuroblastoma cells in the presence of zVAD, ATP assay; format: cell-based, human; conditions: zVAD 100 μM, compound 30 μM, 72 hours
# Experimental: FIG. 15 is a chart showing that necrostatins attenuate MPP^+ cytotoxicity in human SH-SY5Y neuroblastoma cells. Cells were treated with 5 mM MPP^+ in the presence or absence of 100 μM zVAD.fmk and 30 μM necrostatins for 72 hours, followed by an ATP assay. Values represent cell viability normalized to the corresponding compound treated controls not treated with MPP^+.
# as §1
# Jurkat T cells = assay: Necrosis (CICD) of Jurkat T cells induced by Fas ligand, cycloheximide and zVAD, ATP assay; format: cell-based, human; conditions: FasL/CHX/zVAD
# Experimental: Jurkat cells were treated with 5 ng/ml of FasL without (A) or with cyclohexamide (CHX) (B) to induce apoptosis, or 5 ng/ml FasL, 1 μg/ml of CHX and 100 μM of zVAD.fmk to induce CICD (B). […] Cell viability was determined after 24 hours of incubation with indicated reagents using CellTiter-Glo ATP assay. The values represent viability relative to the control Jurkat cells without the treatment of FasL, which was set as 100% viability.
# FIG. 34A is a graph showing the results of treating Jurkat T cells with Fas ligand (5 ng/ml), cyclohexamide (1 μg/ml) and zVAD (100 μM) in the presence of the indicated amounts of anti-necrotic compounds (4) and (5). Viability was determined 36 hours later using an ATP assay. The viability values are relative to the samples lacking Fas ligand, which were used as 100% viability controls. FIG. 34B is a graph as in FIG. 34A, in which the anti-necrotic compounds are (19) and (20).
# Compounds were also tested in another necrosis assay utilizing human Jurkat T cells, Fas ligand to induce cell death, and zVAD to inhibit the apoptosis pathway. After 36 hours, cell viability was measure by the commercial CellTiter ATP cell viability assay (Promega).
# [3] = test system: Jurkat cells expressing dimerizable FADD; assay: Toxicity of compound alone in Jurkat cells expressing dimerizable FADD (no dimerizer); conditions: compound in the absence of dimerizer
# [4] = test system: Jurkat cells expressing dimerizable FADD; conditions: Homo sapiens, Jurkat, 36 h
Structure (SMILES),"reduction of β-amyloid toxicity in SH-SY5Y, in words (SH-SY5Y cells [1])","attenuation of MPP+ cytotoxicity, in words (SH-SY5Y cells [2])","inhibition of CICD/necrosis of Jurkat cells, in words (Jurkat T cells)",LD50 [3] [µM],EC50 [4] [µM]
"COc1ccc([C@H]2[C@H]3CCc4ccc(OC)cc4C3=NN2C(C)=O)cc1 (relative stereo) [Compound 141, (3R,3aR)-rel-2-acetyl-3,3a,4,5-tetrahydro-3-(4-methoxyphenyl)-8-methoxy-2H-benz[g]indazole]",effective in reducing toxicity as measured by cellular ATP levels,effective in reducing toxicity as measured by cellular ATP levels,efficiently inhibit necrosis and result in high cell viability,–,–
Cc1cc(O)c(C(=O)/C=C/c2ccc(O)c([N+](=O)[O-])c2)c(=O)o1 [Nec-2],–,especially pronounced in case of Nec-2,–,134,27.3
